Results on one molecule are retold here after patent publication US4154839A, “2,6-Dimethyl -3-carboxymethoxy-4-(2-nitrophenyl)-5-carbisobutoxy-1,4-dihydropyridine” (priority 1975, dated 1979).

In series [1] the test system is heart muscle. As to the kind of experiment: myocardial (heart) perfusion in canines, electromagnetic flow meter, sublingual administration. Format: in vivo. Conditions: for % Increase in Heart Perfusion / Half-life duration (of heart perfusion increase): canines. The source says:
The ability of the compound to assist in the perfusion action of the heart muscle can be conveniently observed in recognized pharmacological models. For example, the myocardial perfusion in canines can be observed utilizing an electromagnetic flow meter. Upon sublingual administration to canines, the following pharmacological manifestations are, for example, observed.

Series [2] is described as follows: blood pressure decrease in canines upon sublingual administration. The following applies: for Blood Pressure Decrease (%): canines. Format: in vivo.
The subject of series [3] is coronary perfusion. As to the kind of experiment: coronary activity / effect on coronary perfusion (general statement). Format: in vivo.
Series [4] can be described thus: stability towards light. The series is classed as physicochemical. Conditions: compared with previously known 1,4-dihydropyridines.

As for `COC(=O)C1=C(C)NC(C)=C(C(=O)OCC(C)C)C1c1ccccc1[N+](=O)[O-]` (stereo not shown) [the compound, isobutyl methyl 1,4-dihydro-2,6-dimethyl-4-(2-nitrophenyl)-3,5-pyridinedicarboxylate], the results for the “% Increase in Heart Perfusion” value in series [1] (0.003 mg/kg sublingual), in series [1] (0.01 mg/kg sublingual) and in series [1] (0.1 mg/kg sublingual) were 23%, 46% and 142%, respectively. Besides, the “Half-life duration (of heart perfusion increase)” value in series [1] (0.003 mg/kg sublingual) was 1.67 h; in series [1] (0.01 mg/kg sublingual) it was 2.22 h; in series [1] (0.1 mg/kg sublingual), 3.07 h. Moreover, the “increase of perfusion of the heart muscle, dose dependence (in words)” value in series [1] (sublingual administration) is “increases the perfusion of the heart muscle and that this action is a function of dose”. Also, the “onset of action after sublingual administration” value in series [1] (sublingual administration) is given as “a few minutes after sublingual administration”. Moreover, the “total duration of action on heart muscle perfusion” value in series [1] (sublingual administration, depending upon the dose) lay within 2 to 6 h. For the same molecule, the “Blood Pressure Decrease (%)” value is listed as “.phi” in series [2] (0.003 mg/kg sublingual), 5% in series [2] (0.01 mg/kg sublingual) and 13% in series [2] (0.1 mg/kg sublingual). In series [2] (sublingual administration), the “lowering of blood pressure (in words)” value is “slight and equally long lasting lowering of blood pressure”. Besides, the “coronary activity, magnitude and length of action” value in series [3] (compared with any 1,4-dihydropyridine presently known) was “significantly greater than any 1,4-dihydropyridine presently known”. In addition, the “effect on coronary perfusion (in words)” value in series [3] (in vivo) is “powerful and long acting effect on coronary perfusion”. Moreover, the stability towards light result in series [4] is on record as “considerably greater stability towards light than previously known 1,4-dihydropyridines”.
